Structures can show the parent of a compound that is named as a salt. Where two headings read alike, the source gives them in different places.
Tests used:
Type in all cases: cell-based, human
[1] = tested on: p-ERK in NCI-H441 cells (KRAS G12V mutation); experiment: Cell p-ERK assay (HTRF) in NCI-H441 cells; settings: NCI-H441 cells, 3 h compound incubation, HTRF p-ERK T202/Y204, read-out: H441 p-ERK IC50
Summary of the method: (§1)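 IC50 values derive from four-parameter fitting of p-ERK (T202/Y204) HTRF inhibition, normalized to DMSO and blank controls. The lysates came from cells exposed for 3 h to serial 3.16-fold compound dilutions at 0.1% DMSO, after overnight plating at 10000 AsPC-1 or 20000 NCI-H441 cells per well.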

[2] = tested on: p-ERK in AsPC-1 cells (KRAS G12D mutation); experiment: Cell p-ERK assay (HTRF) in AsPC-1 cells; settings: AsPC-1 cells, 3 h compound incubation, HTRF p-ERK T202/Y204, read-out: AsPC-1 p-ERK IC50
Summary of the method: as §1

[3] = tested on: AsPC-1 cells (KRAS G12D mutation); experiment: 3D cell proliferation assay (CellTiter Glo-3D), AsPC-1; settings: medium with 2% FBS, read-out: AsPC-1 AP IC50
Source text: MIA PaCa-2 cells were purchased from ATCC, Cat. No. CRL-1420; AsPC-1 cells were purchased from ATCC, Cat. No. CRL-1682; NCI-H441 cells were purchased from ATCC, Cat. No. HTB-174: NCI-H1975 cells were purchased from ATCC. Cat. No. CRL-5908; DMEM medium was purchased from Gibco, Cat. No. 11995-065: RPMI-1040 medium was purchased from Gibco. Cat. No. H 18754093; FBS was purchased from Gibco, Cat. No. 10099-141C. penicillin, streptomycin double-antibiotic solution (PS) was purchased from Gibco, Cat. No. 15140-122; Horse serum was purchased from Gibco. Cat. No. 16050130: trypsin (containing EDTA) was purchased from Gibco, Cat. No. 25200-072; DMSO was purchased from VWRAMRESCO, Cat. No. 0231-500ML; 384-well cell culture plates were purchased from Corning, Cat. No. 3830; white-bottomed, opaque 384-well assay plates were purchased from Corning, Cat. No. 3570. CellTiter Glo-3D) kit was purchased from Promega. Cat. No. G9683; cell counter was purchased from CHEMOMETEC, model: NC-200: microplate reader was purchased from PerkinElmer, model: EnVision.
MIA PaCa-2, a human pancreatic cancer cell strain endogenously containing a KRAS^G12C mutation, was cultured in a complete medium containing DMEM+10% FBS+2.5% Horse serum+1% PS. AsPC-1, a human pancreatic cancer cell strain endogenously containing a […] mutation, was cultured in a complete medium containing RPMI-1640+10% FBS+1% PS. NCI-H441 cells, a human lung cancer cell strain endogenously containing a […] mutation, were cultured in a complete medium containing RPMI-1640+10% FBS+1% PS. NCI-H1975, a KRAS wild-type human lung cancer cell strain whose cell proliferation depends on KRAS activity, was cultured in a complete medium containing RPMI-1640+10% FBS+1% PS.
The cells were digested with trypsin (containing EDTA), collected in their respective low-serum complete media containing 2% FBS (for MIA Paca-2 cell culture: DMEM+2% FBS+0.5% Horse serum+1% PS), and counted. After the cell density was adjusted as required, 200 MIA PaCa-2 cells, 800 AsPC-1 cells, 800 NCI-H441 cells, or 400 NCI-H1975 cells per well were seeded into a 384-well cell culture plate, with the volume of the medium in each well being 45 μL. The cell culture plate was incubated in an incubator at 37° C. with 5% CO2, overnight. A series of 3.16-fold gradient dilutions of a 1000× compound stock solution were prepared with DMSO, and then diluted 100-fold with the complete medium containing 2% FBS described above to give 10- compound stock solutions. On the day after cell seeding, 5 μL of the 10- compound stock solution was added to each cell culture well. As a result, the final concentration of the compound in the cell culture well became 1×, and the DMSO content in the well was 0.1%. In addition to the compound-treated wells described above, cell-containing DMSO control wells (with 5 μL of the complete medium containing 1% DMSO added to each well) and cell-free medium control wells (containing 50 μL of the complete medium with 2% FBS) were also set. The culture plate was incubated in an incubator at 37° C. with 5% CO2 for another 5 days, and then 30 μL of CellTiter-Glo working solution was added to each well. The mixture was well mixed, incubated for 30 min, left to stand at room temperature for 30 min, and then transferred to a white-bottomed, opaque 384-well assay plate at 40 μL/well. The chemiluminescence values (RLU) were measured using a microplate reader, and the cell proliferation inhibition rate for each well was calculated: IR (%)=(RLUDMSO—RLUcompound)/(RLUDMSO−RLUblank)×100%, where RLUDMSO is the average RLU signal value from the DMSO control well samples, RLUblank is the average RLU signal value from the medium control well samples, and RLUcompound is the RLU signal value from the compound-treated well samples. […]

[4] = tested on: NCI-H441 cells; experiment: 3D cell proliferation assay (CellTiter Glo-3D), NCI-H441; settings: medium with 2% FBS, read-out: H441 AP IC50
Summary of the method: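 NCI-H441 ([…] lung) and AsPC-1 (KRAS G12D pancreatic) cells, 800 per well, were seeded in RPMI-1640 with 2% FBS and dosed next day with 3.16-fold compound dilutions (0.1% DMSO). After 5 days at 37 °C, CellTiter-Glo 3D luminescence gave inhibition versus DMSO and blank; IC50 from four-parameter fit.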

[5] = Homo sapiens, ASPC1, 3D cell proliferation (CellTiter Glo-3D)
[6] = Homo sapiens, NCI-H441, 3D cell proliferation (CellTiter Glo-3D)
[7] = 3D cell proliferation (CellTiter Glo-3D)

Row | SMILES | IC50 ([1]; Homo sapiens, NCI-H441, 3 h) | IC50 ([2]; Homo sapiens, ASPC1, 3 h) | IC50 [3, 5] | IC50 [4, 6] | IC50 [1] | IC50 [2] | IC50 [3, 7] | IC50 [4, 7]
1 | [2H]C([2H])([2H])O[C@@H](C)c1ncc(N2CCN(C)CC2)cc1-c1c2c3cc(ccc3n1CC)-c1csc(n1)C[C@H](NC(=O)C(C)(C)F)C(=O)N1CCC[C@H](N1)C(=O)OCC(C)(C)C2 (atropisomer, axis not shown; (Ra)) [Compound Z64, N-((1^2R,6^3S,4S,Z)-1^1-ethyl-(Ra)-1^2-(2-((S)-1-(methoxy-d3)ethyl)-5-(4-methylpiperazin-1-yl)pyridin-3-yl)-10,10-dimethyl-5,7-dioxo-6^1,6^2,6^3,6^4,6^5,6^6-hexahydro-1^1H-8-oxa-2(4,2)-thiazola-1(5,3)-indola-6(1,3)-pyridazinacycloundecaphane-4-yl)-2-fluoro-2-methylpropanamide] | 3.32 nM | 6.24 nM | 12.8 nM | 6.27 nM | – | – | – | –
2 | CCn1c(-c2cc(N3CCN(C)CC3)cnc2[C@H](C)OC)c2c3cc(ccc31)-c1csc(n1)C[C@H](NC(=O)C(C)(C)F)C(=O)N1CCC[C@H](N1)C(=O)OCC(C)(C)C2 (atropisomer, axis not shown; (Ra)) [Compound Z66, N-((6^3S,4S,Z)-1^1-ethyl-(Ra)-1^2-(2-((S)-1-methoxyethyl)-5-(4-(methyl-d3)piperazin-1-yl)pyridin-3-yl)-10,10-dimethyl-5,7-dioxa-6^1,6^2,6^3,6^4,6^5,6^6-hexahydro-1^1H-8-oxa-2(4,2)-thiazola-1(5,3)-indola-6(1,3)-pyridazinacycloundecaphane-4-yl)-2-fluoro-2-methylpropanamide] | – | – | – | – | 4.26 nM | 2.72 nM | 20.9 nM | 5.69 nM
3 | CCn1c(-c2cc(N3CCN(C)CC3)cnc2[C@H](C)OC)c2c3cc(ccc31)-c1csc(n1)C[C@H](NC1=NCCO1)C(=O)N1CCC[C@H](N1)C(=O)OCC(C)(C)C2 (atropisomer, axis not shown; (Ra)) [Compound Z71, (6^3S,4S,Z)-1^1-ethyl-(Ra)-1^2-(2-((S)-1-methoxyethyl)-5-(4-methylpiperazin-1-yl)pyridin-3-yl)-10,10-dimethyl-4-((4.5-dihydrooxazol-2-yl)amino)-6^1,6^2,6^3,6^4,6^5,6^6-hexahydro-1^1H-8-oxa-2(4,2)-thiazola-1(5,3)-indola-6(1,3)-pyridazinacycloundecaphane-5,7-dione formate] | 41.7 nM | 96.4 nM | 302 nM | 149 nM | – | – | – | –
4 | CCn1c(-c2cc(N3CCN4CCOC[C@@H]4C3)cnc2[C@H](C)OC)c2c3cc(ccc31)-c1csc(n1)C[C@H](NC(=O)[C@H]1[C@H](C)[C@@H]1C)C(=O)N1CCC[C@H](N1)C(=O)OCC(C)(C)C2 (atropisomer, axis not shown; (Ra)) [Compound Z73, (1r,2R,3S)—N-((6^3S,4S,Z)-1^1-ethyl-(Ra)-1^2-(5-((S)-hexahydropyrazino[2,1-c][1,4]oxazin-8(1H)-yl)-2-((S)-1-(methoxy-d3)ethyl)pyridin-3-yl)-10,10-dimethyl-5,7-dioxo-6^1,6^2,6^3,6^4,6^5,6^6-hexahydro-1^1H-8-oxa-2(4,2)-thiazola-1(5,3)-indola-6(1,3)-pyridazinacycloundecaphane-4-yl)-2,3-dimethylcyclopropane-1-carboxamide] | – | – | – | – | 0.24 nM | 0.21 nM | 0.65 nM | 0.35 nM

More lines, in order of falling IC50 [3, 5], values ahead:

Row | IC50 ([1]; Homo sapiens, NCI-H441, 3 h) | IC50 ([2]; Homo sapiens, ASPC1, 3 h) | IC50 [3, 5] | IC50 [4, 6] | IC50 [1] | IC50 [2] | IC50 [3, 7] | IC50 [4, 7] | SMILES
5 | 0.91 nM | 3.92 nM | 6.9 nM | 3.7 nM | – | – | – | – | CCn1c(-c2cc(OCCN3CCOC4(CC4)C3)cnc2[C@H](C)OC)c2c3cc(ccc31)-c1csc(n1)C[C@H](NC(=O)[C@H]1[C@H](C)[C@@H]1C)C(=O)N1CCC[C@H](N1)C(=O)OCC1(CC1)C2 (atropisomer, axis not shown; (Ra)) [Compound Z375]
6 | – | – | 2.09 nM | 0.62 nM | 0.96 nM | 0.38 nM | – | – | C=C1CCN2CCN(c3cnc([C@H](C)OC)c(-c4c5c6cc(ccc6n4CC)-c4csc(n4)C[C@H](NC(=O)[C@H]4[C@H](C)[C@@H]4C)C(=O)N4CCC[C@H](N4)C(=O)OCC(C)(C)C5)c3)C[C@H]2C1 (atropisomer, axis not shown; (Ra)) [Compound Z309, (1r,2R,3S)—N-((6^3S,4S,Z)-1^1-ethyl-(Ra)-1^2-(2-((S)-1-methoxyethyl)-5-((R)-8-methyleneoctahydro-2H-pyrido[1,2-a]pyrazin-2-yl)pyridin-3-yl)-10,10-dimethyl-5,7-dioxo-6^1,6^2,6^3,6^4,6^5,6^6-hexahydro-1^1H-8-oxa-2(4,2)-thiazola-1(5,3)-indola-6(1,3)-pyridazinacycloundecaphane-4-yl)-2,3-dimethylcyclopropane-1-carboxamide]
7 | 0.71 nM | 0.48 nM | 0.82 nM | 0.67 nM | – | – | – | – | CO[C@@H](C)c1ncc(C#CCN2CCC2)cc1-c1c2c3cc(ccc3n1CC(F)(F)F)-c1csc(n1)C[C@H](NC(=O)[C@H]1[C@H](C)[C@@H]1C)C(=O)N1CCC[C@H](N1)C(=O)OCC(C)(C)C2 (atropisomer, axis not shown; (Ra)) [Compound Z362-2, (1r,2R,3S)—N-((6^3S,4S,Z)-1′-(5-(3-(azetidin-1-yl)prop-1-yn-1-yl)-(Ra)-2-((S)-1-methoxyethyl)pyridin-3-yl)-10,10-dimethyl-5,7-dioxo-1^1-(2,2,2-trifluoroethyl)-6^1,6^2,6^3,6^4,6^5,6^6-hexahydro-1^1H-8-oxa-2(4,2)-thiazola-1(5,3)-indola-6(1,3)-pyridazinacycloundecaphane-4-yl)-2,3-dimethylcyclopropane-1-carboxamide]

— patent US20260234165A1, “MACROCYCLIC COMPOUNDS, PREPARATION METHOD THEREFOR, AND USE THEREOF” (GENFLEET THERAPEUTICS (SHANGHAI) INC., priority 2004, published 2026)
